In patent US12156880B2, “Heterocyclic RIP1 kinase inhibitors” (Rigel Pharmaceuticals, Inc., priority 2021, dated 2024) one finds IC50 data, which are given here for 9 compounds.

The test system of one experiment is L929 cells. In words: L929 cell necroptosis assay (TNFa + zVAD, CellTiter-Glo recovery). It counts as cell-based, murine. The note with it: Mus musculus, L929, 18 h, TNFa 2 ng/mL + zVAD-fmk, read-out: L929-CTG-recovery, L929, TNFa + zVAD (IC50). Summed up: (§1)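 Human U937 (50K/well, 60 uM zVAD-fmk medium, plated same day) or murine L929 (10K/well, plated 18 h, then 40 uM zVAD-fmk medium) were grown in RPMI with 10% FBS. Both were pretreated with compound for 1 h at 37 °C before TNFa at 2 ng/mL final. Viability was read by CellTiter-Glo luminescence after 18 h.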
Background: In ATP-based viability assays light output follows the ATP content of the culture.

The next experiment concerns the target T1, RIPK1 (Homo sapiens, UniProt Q13546).
T1 sequence (Q13546 1-671): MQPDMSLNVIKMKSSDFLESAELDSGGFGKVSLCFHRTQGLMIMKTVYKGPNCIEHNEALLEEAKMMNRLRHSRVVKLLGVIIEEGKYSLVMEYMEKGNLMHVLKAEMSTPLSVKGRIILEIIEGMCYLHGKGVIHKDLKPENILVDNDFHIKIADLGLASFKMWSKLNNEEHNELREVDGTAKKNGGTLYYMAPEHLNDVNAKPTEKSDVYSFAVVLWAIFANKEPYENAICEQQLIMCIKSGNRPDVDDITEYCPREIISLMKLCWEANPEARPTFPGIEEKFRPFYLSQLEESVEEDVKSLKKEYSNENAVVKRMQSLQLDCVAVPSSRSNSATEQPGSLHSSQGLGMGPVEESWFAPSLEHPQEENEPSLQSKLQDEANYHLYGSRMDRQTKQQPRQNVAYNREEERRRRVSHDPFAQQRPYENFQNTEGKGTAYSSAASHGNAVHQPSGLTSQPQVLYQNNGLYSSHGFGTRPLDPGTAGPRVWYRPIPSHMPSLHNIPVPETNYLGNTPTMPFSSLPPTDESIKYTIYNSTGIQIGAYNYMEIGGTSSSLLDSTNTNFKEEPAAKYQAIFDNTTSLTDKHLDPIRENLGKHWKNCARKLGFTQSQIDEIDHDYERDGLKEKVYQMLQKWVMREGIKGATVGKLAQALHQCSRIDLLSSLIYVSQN
In words: RIPK1 ADP-Glo biochemical kinase assay. The note with it: read-out: RIPK1 ADP-Glo Kinase (IC50). In a few lines:
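RIPK1 at 31 ng/well in Tris pH 7.4 buffer with MgCl2, BSA, DTT and MnCl2, reacted with compounds (duplicate) for 30 min at 30 °C. ADP formed detected by ADP-Glo: 40 min stop/depletion, then 30 min detection reagent at room temperature; luminescence read.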
Background: ADP-Glo turns the ADP formed in a reaction into a luminescent signal.

The next experiment concerns U937 cells. In words: U937 cell necroptosis assay (TNFa + zVAD, CellTiter-Glo recovery). It counts as cell-based. Particulars: Homo sapiens, U-937, 18 h, TNFa 2 ng/mL + zVAD-fmk, read-out: U937 Zvad TNF CTG Recovery, U937, TNFa + zVAD (IC50). Summed up:
as §1

One may read the IC50 as the concentration at which inhibition is half-maximal. Turning to `CN1C(=O)[C@@H](NC(=O)c2cc(Oc3cncc(F)c3)ccn2)COc2ccc(C#CC(C)(C)O)cc21` [I-60, (S)-4-((5-fluoropyridin-3-yl)oxy)-N-(7-(3-hydroxy-3-methylbut-1-yn-1-yl)-5-methyl-4-oxo-2,3,4,5-tetrahydrobenzo[b][1,4]oxazepin-3-yl)picolinamide], the values for the IC50 with L929 cells, on RIPK1 and in the experiment with U937 cells were 4590 nM, 12.8 nM and 12.1 nM, respectively.
The matching figures for `CN1C(=O)[C@@H](NC(=O)c2cc(Cc3cccnc3F)ccn2)COc2ccc(C#CC(C)(C)O)cc21` [I-27, (S)-4-((2-fluoropyridin-3-yl)methyl)-N-(7-(3-hydroxy-3-methylbut-1-yn-1-yl)-5-methyl-4-oxo-2,3,4,5-tetrahydrobenzo[b][1,4]oxazepin-3-yl)picolinamide]: 622 nM, 19.3 nM and 9.7 nM.
On the same counts, the results for `CN1C(=O)[C@@H](NC(=O)c2cc(Oc3cccnc3C#N)ccn2)COc2ccc(C#CC3(O)COC3)cc21` [I-92, (S)-4-((2-cyanopyridin-3-yl)oxy)-N-(7-((3-hydroxyoxetan-3-yl)ethynyl)-5-methyl-4-oxo-2,3,4,5-tetrahydrobenzo[b][1,4]oxazepin-3-yl)picolinamide] are 7870 nM, 20.8 nM and 158 nM.
On the same counts, the results for `CN1C(=O)[C@@H](NC(=O)c2cc(Oc3cccnc3F)ccn2)COc2ccc(C#CC3COC3)cc21` [I-55, (S)-4-((2-fluoropyridin-3-yl)oxy)-N-(5-methyl-7-(oxetan-3-ylethynyl)-4-oxo-2,3,4,5-tetrahydrobenzo[b][1,4]oxazepin-3-yl)picolinamide] are 155 nM, 14.3 nM and 1.2 nM.
With `CN1C(=O)[C@@H](NC(=O)c2cc(Cc3cccc(C#N)n3)ccn2)COc2ccc(C#CC(C)(C)O)cc21` [I-93, (S)-4-((6-cyanopyridin-2-yl)methyl)-N-(7-(3-hydroxy-3-methylbut-1-yn-1-yl)-5-methyl-4-oxo-2,3,4,5-tetrahydrobenzo[b][1,4]oxazepin-3-yl)picolinamide], the results for the half-maximal inhibitory concentration (IC50) in the experiment with L929 cells, on RIPK1 and in the experiment on U937 cells were 5670 nM, 29.9 nM and 52.2 nM, respectively.
Consider `CN1C(=O)[C@@H](NC(=O)c2cc(Oc3cnn(C)c3)ccn2)COc2ccc(C#CC3(O)COC3)cc21` [I-127, (S)—N-(7-((3-hydroxyoxetan-3-yl)ethynyl)-5-methyl-4-oxo-2,3,4,5-tetrahydrobenzo[b][1,4]oxazepin-3-yl)-4-((1-methyl-1H-pyrazol-4-yl)oxy)picolinamide], for which the IC50 in the experiment on L929 cells is 198 nM; at RIPK1 it was 15 nM; in the experiment with U937 cells, 6.7 nM.
On the same counts, the results for `CN1C(=O)[C@@H](NC(=O)c2cc(Cc3cccc(F)n3)ccn2)COc2ccc(C#CC(C)(C)O)cc21` [I-13, (S)-4-((6-fluoropyridin-2-yl)methyl)-N-(7-(3-hydroxy-3-methylbut-1-yn-1-yl)-5-methyl-4-oxo-2,3,4,5-tetrahydrobenzo[b][1,4]oxazepin-3-yl)picolinamide] are 1310 nM, 21.2 nM and 42 nM.
The matching figures for `Cc1ncccc1Oc1ccnc(C(=O)N[C@H]2COc3ccc(C#CC4(O)CCC4)cc3N(C)C2=O)c1` [I-82, (S)—N-(7-((1-hydroxycyclobutyl)ethynyl)-5-methyl-4-oxo-2,3,4,5-tetrahydrobenzo[b][1,4]oxazepin-3-yl)-4-((2-methylpyridin-3-yl)oxy)picolinamide]: 4480 nM, 29.4 nM and 30.2 nM.
The matching figures for `CN1C(=O)[C@@H](NC(=O)n2cc(Cc3cccc(F)n3)cn2)COc2ccc(C#CC(O)C(F)(F)F)cc21` (mixture of isomers) [I-105, (±)-4-((6-Fluoropyridin-2-yl)methyl)-N-((3S)-5-methyl-4-oxo-7-(4,4,4-trifluoro-3-hydroxybut-1-yn-1-yl)-2,3,4,5-tetrahydrobenzo[b][1,4]oxazepin-3-yl)-1H-pyrazole-1-carboxamide]: 1540 nM, 16.8 nM and 8.6 nM.
